Active and inactive are the calls of the source. No rule for the calls is given here.

This data set concerns CCRIS mutagenicity, Ames/micronucleus/aberration tests. Kind of data set: CCRIS mutagenicity studies.

`CCNNCC`: the mutagenic call is “inactive; negative” (Test System: AMES SALMONELLA TYPHIMURIUM, Strain/Indicator: TA98, Metabolic Activation: NONE, Method: PREINCUBATION); “inactive; negative” (Test System: AMES SALMONELLA TYPHIMURIUM, Strain/Indicator: TA98, Metabolic Activation: RAT LIVER S-9, PHENOBARBITAL AND BETA-NAPHTHOFLAVONE, Method: PREINCUBATION); “inactive; negative” (Test System: AMES SALMONELLA TYPHIMURIUM, Strain/Indicator: TA100, Metabolic Activation: NONE, Method: PREINCUBATION); “active; positive” (Test System: AMES SALMONELLA TYPHIMURIUM, Strain/Indicator: TA100, Metabolic Activation: NONE, Method: PREINCUBATION (11 HR GROWTH PERIOD FOR BACTERIA)); “inactive; negative” (Test System: AMES SALMONELLA TYPHIMURIUM, Strain/Indicator: TA100, Metabolic Activation: RAT LIVER S-9, PHENOBARBITAL AND BETA-NAPHTHOFLAVONE, Method: PREINCUBATION); “inactive; negative” (Test System: AMES SALMONELLA TYPHIMURIUM, Strain/Indicator: TA100, Metabolic Activation: RAT, LIVER, S-9, PCB, Method: PREINCUBATION (11 HR GROWTH PERIOD FOR BACTERIA)). Besides, the mutagenic call (Test System: AMES SALMONELLA TYPHIMURIUM, Strain/Indicator: TA102, Metabolic Activation: NONE, Method: PREINCUBATION) was “inactive; negative”; the mutagenic call (Test System: AMES SALMONELLA TYPHIMURIUM, Strain/Indicator: TA102, Metabolic Activation: NONE, Method: PREINCUBATION (5 OR 7 HR GROWTH PERIOD FOR BACTERIA)) is “active; positive”; the mutagenic call (Test System: AMES SALMONELLA TYPHIMURIUM, Strain/Indicator: TA102, Metabolic Activation: NONE, Method: PREINCUBATION (11 HR GROWTH PERIOD FOR BACTERIA)) was “inactive; negative”; the mutagenic call (Test System: AMES SALMONELLA TYPHIMURIUM, Strain/Indicator: TA102, Metabolic Activation: RAT LIVER S-9, PHENOBARBITAL AND BETA-NAPHTHOFLAVONE, Method: PREINCUBATION) was “inactive; negative”; the mutagenic call (Test System: AMES SALMONELLA TYPHIMURIUM, Strain/Indicator: TA102, Metabolic Activation: RAT, LIVER, S-9, PCB, Method: PREINCUBATION (5 OR 7 HR GROWTH PERIOD FOR BACTERIA)) was “inactive; negative”; the mutagenic call (Test System: AMES SALMONELLA TYPHIMURIUM, Strain/Indicator: TA104, Metabolic Activation: NONE, Method: PREINCUBATION) was “inactive; negative”. In addition, the mutagenic call by setting is: (Test System: AMES SALMONELLA TYPHIMURIUM, Strain/Indicator: TA104, Metabolic Activation: RAT LIVER S-9, PHENOBARBITAL AND BETA-NAPHTHOFLAVONE, Method: PREINCUBATION) “inactive; negative”; (Test System: AMES SALMONELLA TYPHIMURIUM, Strain/Indicator: TA1535, Metabolic Activation: NONE, Method: PREINCUBATION) “inactive; negative”; (Test System: AMES SALMONELLA TYPHIMURIUM, Strain/Indicator: TA1535, Metabolic Activation: RAT LIVER S-9, PHENOBARBITAL AND BETA-NAPHTHOFLAVONE, Method: PREINCUBATION) “inactive; negative”; (Test System: AMES SALMONELLA TYPHIMURIUM, Strain/Indicator: TA1537, Metabolic Activation: NONE, Method: PREINCUBATION) “inactive; negative”; (Test System: AMES SALMONELLA TYPHIMURIUM, Strain/Indicator: TA1537, Metabolic Activation: RAT LIVER S-9, PHENOBARBITAL AND BETA-NAPHTHOFLAVONE, Method: PREINCUBATION) “inactive; negative”; (Test System: E.COLI, Strain/Indicator: WP2UVRA/PKM101, Metabolic Activation: NONE, Method: PREINCUBATION) “inactive; negative”. Besides, the mutagenic call reads like this: (Test System: E.COLI, Strain/Indicator: WP2UVRA/PKM101, Metabolic Activation: RAT LIVER S-9, PHENOBARBITAL AND BETA-NAPHTHOFLAVONE, Method: PREINCUBATION) “inactive; negative”; (Test System: E.COLI, Strain/Indicator: WP2UVRA, Metabolic Activation: NONE, Method: PREINCUBATION) “inactive; negative”; (Test System: E.COLI, Strain/Indicator: WP2UVRA, Metabolic Activation: RAT LIVER S-9, PHENOBARBITAL AND BETA-NAPHTHOFLAVONE, Method: PREINCUBATION) “inactive; negative”.

Turning to `C[C@@H]1C[C@@H]2c3cccc4[nH]cc(c34)C[C@H]2N(C)C1`, the mutagenic call (Test System: AMES SALMONELLA TYPHIMURIUM, Strain/Indicator: TA100, Metabolic Activation: RAT, LIVER, S-9, AROCLOR 1254, Method: STANDARD PLATE) is “active; positive”.

The values above are taken from PubChem BioAssay AID1259407 (Chemical Carcinogenesis Research Information System (CCRIS), 2018).
